Common to all, as to assay type: cell-based
Assay [1] concerns the target T1, ΔF508-CFTR (Homo sapiens, UniProt P13569, DEL508-508).
T1 construct: host or cells: CFBE41o-, doxycycline-inducible
The assay can be described thus: CFTR cell surface levels using HRP-tagged ΔF508-CFTR expressing CFBE cells, in the presence of a co-corrector. The conditions noted are these: HRP-tagged ΔF508-CFTR CFBE cells, in the presence of 3 μM co-corrector; for EC50: read-out: EC50. Summed up:
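Chemiluminescent read-out of surface HRP (15 min, dark) after PBS washes. Activity is normalized as 100×(sample−DMSO)/(3 μM co-corrector alone−DMSO).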

Assay [2] deals with T1, ΔF508-CFTR. The assay can be described thus: CFTR cell surface levels using HRP-tagged ΔF508-CFTR expressing CFBE cells, intrinsic corrector capacity. Particulars: HRP-tagged ΔF508-CFTR expressing CFBE41o- cells, compound alone (intrinsic corrector capacity), 20 hours at 33° C.; for EC50: read-out: EC50. Details: % Activation: concentration or dose not given beside the values. A digest of the protocol: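 Read-out: chemiluminescent HRP activity of ECL4-HRP-tagged ΔF508-CFTR at the cell surface, 15 min substrate in dark. Normalized as 100×(sample−DMSO)/(positive control−DMSO).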

The target of a further assay is T2, CFTR ΔF508 (Homo sapiens, UniProt P13569, DEL508-508).
T2 construct: bronchial epithelial cells isolated from CF patients homozygous for the CFTR ΔF508 mutation; McGill University; Asterand; University of North Carolina hAEC-CF; host or cells: primary human bronchial epithelial cells from CF patients homozygous for ΔF508, differentiated at air-liquid interface
T2 sequence (P13569 with tags, fused parts or gaps DEL508-508): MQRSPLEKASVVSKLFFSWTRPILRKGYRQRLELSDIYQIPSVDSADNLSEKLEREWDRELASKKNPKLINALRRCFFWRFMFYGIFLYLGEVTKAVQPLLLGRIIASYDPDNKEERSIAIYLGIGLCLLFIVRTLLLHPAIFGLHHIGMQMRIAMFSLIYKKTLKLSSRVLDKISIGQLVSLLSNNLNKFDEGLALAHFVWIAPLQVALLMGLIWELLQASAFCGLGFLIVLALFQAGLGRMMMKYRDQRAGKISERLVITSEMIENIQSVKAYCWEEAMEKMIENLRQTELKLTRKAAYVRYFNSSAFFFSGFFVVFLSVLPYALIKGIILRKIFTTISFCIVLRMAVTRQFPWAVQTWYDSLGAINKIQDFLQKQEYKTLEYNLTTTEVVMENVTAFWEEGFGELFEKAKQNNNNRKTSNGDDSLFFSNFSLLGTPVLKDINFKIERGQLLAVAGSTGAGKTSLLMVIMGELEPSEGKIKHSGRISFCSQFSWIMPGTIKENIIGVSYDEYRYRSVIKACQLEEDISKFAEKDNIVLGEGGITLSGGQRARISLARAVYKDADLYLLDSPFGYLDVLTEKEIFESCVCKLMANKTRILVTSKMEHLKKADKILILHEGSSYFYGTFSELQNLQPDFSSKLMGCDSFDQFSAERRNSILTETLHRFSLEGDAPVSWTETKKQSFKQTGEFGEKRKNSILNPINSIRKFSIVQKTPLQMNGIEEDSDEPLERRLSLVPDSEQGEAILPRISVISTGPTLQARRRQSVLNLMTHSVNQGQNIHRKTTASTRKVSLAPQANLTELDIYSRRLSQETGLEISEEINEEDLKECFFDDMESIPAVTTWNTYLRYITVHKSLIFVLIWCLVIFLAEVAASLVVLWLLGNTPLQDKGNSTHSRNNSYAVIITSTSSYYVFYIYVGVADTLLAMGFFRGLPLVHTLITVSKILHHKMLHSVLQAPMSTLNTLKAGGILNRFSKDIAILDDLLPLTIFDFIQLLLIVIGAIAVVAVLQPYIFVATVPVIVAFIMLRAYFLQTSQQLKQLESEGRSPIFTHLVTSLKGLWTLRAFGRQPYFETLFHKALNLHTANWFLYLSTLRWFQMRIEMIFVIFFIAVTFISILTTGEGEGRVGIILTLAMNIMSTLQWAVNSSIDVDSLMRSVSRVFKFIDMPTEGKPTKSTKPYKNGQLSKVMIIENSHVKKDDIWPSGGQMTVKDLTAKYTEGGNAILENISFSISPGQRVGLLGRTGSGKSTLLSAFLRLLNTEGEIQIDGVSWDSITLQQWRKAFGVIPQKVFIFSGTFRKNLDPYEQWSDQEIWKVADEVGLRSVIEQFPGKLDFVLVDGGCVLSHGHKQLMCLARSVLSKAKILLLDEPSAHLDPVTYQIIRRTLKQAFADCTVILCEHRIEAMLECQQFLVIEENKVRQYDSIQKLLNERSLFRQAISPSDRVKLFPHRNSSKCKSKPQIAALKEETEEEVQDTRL
Nature of the assay: Chronic TECC assay, primary bronchial epithelial cells of CF patients homozygous for CFTR ΔF508 (corrector, co-corrector and potentiator). Particulars: chronic TECC, AUC = full area under the curve upon forskolin stimulation; for EC50: read-out: EC50 (nM) (AUC**); for % Activity at 1 μM (AUC**): test compound at 1 μM; for % Activity at 3 μM (AUC**): test compound at 3 μM. A digest of the protocol: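 Primary bronchial epithelial cells from ΔF508-homozygous CF patients on collagen IV-coated Transwells were chronically treated with test compound plus corrector and potentiator, which were re-added before recording. Ieq was derived from PD and Rt in NaCl-Ringer, pH 7.4, at 37° C, with apical amiloride and bilateral forskolin, recorded every 2 min over 20 min. Ieq increase was normalized to controls, and EC50 was taken from per-well concentrations.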

One may read the EC50 as the concentration at which the effect is half-maximal.

T1 sequence (P13569 with tags, fused parts or gaps DEL508-508): as above

As for `COC1CCN(C2CCN(c3cc(C(=O)NS(N)(=O)=O)nc4c3c(C3CCC3)nn4-c3ccc(F)cc3)CC2)CC1` [Compound 630, 3-cyclobutyl-1-(4-fluorophenyl)-4-(4-methoxy[1,4'-bipiperidin]-1'-yl)-N-sulfamoyl-1H-pyrazolo[3,4-b]pyridine-6-carboxamide], at ΔF508-CFTR [1], the “% Activation” value was 593.42% and the EC50 amounted to 375 nM. For the same compound, on ΔF508-CFTR [2], the “% Activation” value came to 339.64% and the EC50 came to 739 nM. Further, at CFTR ΔF508, the EC50 amounted to 47.1 nM and the “% Activity at 1 μM (AUC**)” value amounted to 125.1944%.
Turning to `COC1CCN(C2CCN(c3cc(C(=O)NS(=O)(=O)N4CCC4)nc4c3c(C3CCC3)nn4-c3ccc(F)cc3)CC2)CC1` [Compound 632, N-(azetidine-1-sulfonyl)-3-cyclobutyl-1-(4-fluorophenyl)-4-(4-methoxy[1,4'-bipiperidin]-1'-yl)-1H-pyrazolo[3,4-b]pyridine-6-carboxamide], on ΔF508-CFTR [1], the “% Activation” value is 466.83% and the EC50 was 154 nM. On ΔF508-CFTR [2], the “% Activation” value is on record as 252.75% and the EC50 came out at 304 nM. Also, on CFTR ΔF508, the EC50 is 29.3 nM and the “% Activity at 3 μM (AUC**)” value was 237.1158%.
Regarding `CC(C)Oc1nn(C2CCCCC2)c2nc(C(=O)NS(C)(=O)=O)cc(-c3ccc(CN4CC(N(C)C)C4)cc3)c12` [Compound 633, 1-cyclohexyl-4-(4-{[3-(dimethylamino)azetidin-1-yl]methyl}phenyl)-N-(methanesulfonyl)-3-[(propan-2-yl)oxy]-1H-pyrazolo[3,4-b]pyridine-6-carboxamide], the “% Activation” value came to 400.44% on ΔF508-CFTR [1] and 180.46% on ΔF508-CFTR [2]. Moreover, the EC50 came out at 207 nM at ΔF508-CFTR [1], 345 nM on ΔF508-CFTR [2] and 204 nM at CFTR ΔF508.
For the compound `CC(C)Oc1nn(C2CCCCC2)c2nc(C(=O)NS(C)(=O)=O)cc(-c3ccc(CN4CCN(C(C)C)CC4)cc3)c12` [Compound 634, 1-cyclohexyl-N-(methanesulfonyl)-3-[(propan-2-yl)oxy]-4-(4-{[4-(propan-2-yl)piperazin-1-yl]methyl}phenyl)-1H-pyrazolo[3,4-b]pyridine-6-carboxamide], the “% Activation” value at ΔF508-CFTR [1] stood at 439.44%; at ΔF508-CFTR [2] it was 227.46%. Besides, the EC50 on ΔF508-CFTR [1] was determined as 78.8 nM; on ΔF508-CFTR [2], 200 nM; on CFTR ΔF508, 138 nM.
Consider `CNS(=O)(=O)NC(=O)c1cc(N2CCC(N3CCN(C(C)C)CC3)CC2)c2c(C3CCC3)nn(-c3ccc(F)cc3)c2n1` [Compound 638, 3-cyclobutyl-1-(4-fluorophenyl)-N-(methylsulfamoyl)-4-{4-[4-(propan-2-yl)piperazin-1-yl]piperidin-1-yl}-1H-pyrazolo[3,4-b]pyridine-6-carboxamide], for which the “% Activation” value at ΔF508-CFTR [1] came out at 606.08%; on ΔF508-CFTR [2], 398.98%. Moreover, the results for the EC50 at ΔF508-CFTR [1], at ΔF508-CFTR [2] and on CFTR ΔF508 were 95 nM, 241 nM and 11.2 nM, respectively. Moreover, at CFTR ΔF508, the “% Activity at 3 μM (AUC**)” value is recorded as 341.3493%.
`COC1CCN(C2CCN(c3cc(C(=O)NS(=O)(=O)N4CC(OC)C4)nc4c3c(C3CCC3)nn4-c3ccc(F)cc3)CC2)CC1` [Compound 645, 3-cyclobutyl-1-(4-fluorophenyl)-N-(3-methoxyazetidine-1-sulfonyl)-4-(4-methoxy[1,4'-bipiperidin]-1'-yl)-1H-pyrazolo[3,4-b]pyridine-6-carboxamide]: on ΔF508-CFTR [1], the “% Activation” value worked out at 384.37% and the EC50 was 244 nM. At ΔF508-CFTR [2], the “% Activation” value came to 194.33% and the EC50 is 331 nM. Also, the “% Activity at 3 μM (AUC**)” value on CFTR ΔF508 was found to be 246.4648%.
For `COC1CCN(C2CCN(c3cc(C(=O)NS(=O)(=O)N4CC(F)C4)nc4c3c(C3CCC3)nn4-c3ccc(F)cc3)CC2)CC1` [Compound 646, 3-cyclobutyl-N-(3-fluoroazetidine-1-sulfonyl)-1-(4-fluorophenyl)-4-(4-methoxy[1,4'-bipiperidin]-1'-yl)-1H-pyrazolo[3,4-b]pyridine-6-carboxamide], the “% Activation” value at ΔF508-CFTR [1] is reported as 447.9%; on ΔF508-CFTR [2] it was 236.13%. Also, the values for the EC50 at ΔF508-CFTR [1], on ΔF508-CFTR [2] and at CFTR ΔF508 were 259 nM, 400 nM and 23.5 nM, respectively. The “% Activity at 3 μM (AUC**)” value on CFTR ΔF508 was found to be 276.7167%.
With `COC1CCN(C2CCN(c3cc(C(=O)NS(=O)(=O)N4CCOCC4)nc4c3c(C3CCC3)nn4-c3ccc(F)cc3)CC2)CC1` [Compound 647, 3-cyclobutyl-1-(4-fluorophenyl)-4-(4-methoxy[1,4'-bipiperidin]-1'-yl)-N-(morpholine-4-sulfonyl)-1H-pyrazolo[3,4-b]pyridine-6-carboxamide], on ΔF508-CFTR [1], the “% Activation” value came out at 337.07% and the EC50 turned out to be 112 nM. In addition, on ΔF508-CFTR [2], the “% Activation” value was 164.47% and the EC50 worked out at 216 nM. Further, at CFTR ΔF508, the EC50 stood at 151 nM and the “% Activity at 3 μM (AUC**)” value was 420.0246%.
For `CS(=O)(=O)NC(=O)c1cc(C2CCC(N3CCOCC3)CC2)c2c(C3CCC3)nn(-c3ccccc3)c2n1` (centres unmarked) [Compound 648, 3-cyclobutyl-N-(methanesulfonyl)-4-[4-(morpholin-4-yl)cyclohexyl]-1-phenyl-1H-pyrazolo[3,4-b]pyridine-6-carboxamide], on ΔF508-CFTR [1], the “% Activation” value was found to be 288.85% and the EC50 was determined as 110 nM. Also, at ΔF508-CFTR [2], the “% Activation” value was found to be 109.65% and the EC50 came to 316 nM. At CFTR ΔF508, the “% Activity at 1 μM (AUC**)” value was determined as 366.0679%.
Take `CN(C)S(=O)(=O)NC(=O)c1cc(C2CCC(N3CCOCC3)CC2)c2c(C3CCC3)nn(-c3ccccc3)c2n1` (centres unmarked) [Compound 649, 3-cyclobutyl-N-(dimethylsulfamoyl)-4-[4-(morpholin-4-yl)cyclohexyl]-1-phenyl-1H-pyrazolo[3,4-b]pyridine-6-carboxamide]: at ΔF508-CFTR [1], the “% Activation” value came out at 231.7% and the EC50 came out at 152 nM. Further, on ΔF508-CFTR [2], the “% Activation” value was determined as 69.12% and the EC50 was 370 nM. For the same compound, the “% Activity at 3 μM (AUC**)” value on CFTR ΔF508 came to 224.5026%.
For the compound `CN(C(=O)c1cc(N2CCC(N3CCOCC3)CC2)c2c(C3CCC3)nn(-c3ccc(F)cc3)c2n1)S(C)(=O)=O` [Compound 654, 3-cyclobutyl-1-(4-fluorophenyl)-N-(methanesulfonyl)-N-methyl-4-[4-(morpholin-4-yl)piperidin-1-yl]-1H-pyrazolo[3,4-b]pyridine-6-carboxamide], on ΔF508-CFTR [1], the “% Activation” value turned out to be 347.6% and the EC50 was 114 nM. For the same compound, at ΔF508-CFTR [2], the “% Activation” value is 73.925% and the EC50 worked out at 5080 nM. In addition, on CFTR ΔF508, the “% Activity at 1 μM (AUC**)” value is on record as 293.3333%.
In the case of `CCS(=O)(=O)N(C)C(=O)c1cc(N2CCC(CN3CCCC3)CC2)c2c(C3CCC3)nn(-c3ccccc3)c2n1` [Compound 659, 3-cyclobutyl-N-(ethanesulfonyl)-N-methyl-1-phenyl-4-{4-[(pyrrolidin-1-yl)methyl]piperidin-1-yl}-1H-pyrazolo[3,4-b]pyridine-6-carboxamide], on ΔF508-CFTR [1], the “% Activation” value is on record as 290.95% and the EC50 worked out at 130 nM. For the same compound, at ΔF508-CFTR [2], the “% Activation” value is 96.44% and the EC50 came out at 142 nM. For the same compound, the “% Activity at 3 μM (AUC**)” value on CFTR ΔF508 is on record as 251.6549%.
